Laboratory results as given in the supplement of paper PMC10290057.
Counter-ions that a name gives are not always drawn.
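Throughout, for AC50 cell viability (CellTiter-Glo): HCT116 colorectal carcinoma cells screened at five concentrations per compound, luminescent viability scaled between DMSO wells and empty wells on each plate, curves fitted per compound.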
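Throughout, for efficacy (fitted maximal change in viability relative to DMSO control): Luminescence-based viability readout, five doses per compound, normalized against on-plate DMSO and empty-well controls, followed by dose-response curve fitting for every drug.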

The compounds below were run on HCT116 (assay: AC50 cell viability (CellTiter-Glo); higher = less potent). Settings: 48 h.
For `COc1ccc(CCN(C)CCCC(C#N)(c2ccc(OC)c(OC)c2)C(C)C)cc1OC` (stereo unspecified) [Verapamil], the AC50 cell viability was 18.6 µM.

What follows are compounds tested on HCT116 (assay: efficacy (fitted maximal change in viability relative to DMSO control); higher = less cytotoxic (negative = loss of viability)). Settings: 48 h.
Work on `COc1ccnc(C[S+]([O-])c2nc3cc(OC(F)F)ccc3[nH]2)c1OC` (stereo unspecified) [Pantoprazole] yielded an efficacy of -34.5%. With `C[C@H]1CN(CCN1C2=CN=C(NC/3=C/C(=C\N(C)C3=O)C4=CC=NC(=C4CO)N5CC[N]6C7=C(CC(C)(C)C7)C=C6C5=O)C=C2)C8COC8` [RG-7845 (GDC-0853)] the efficacy was -34.1%. With `C[C@H](NC(=O)Cc1cc(F)cc(F)c1)C(=O)N[C@@H]1C(=O)N(C)c2ccccc2-c2ccccc21` the efficacy was -23.7%. In the case of `COc1cccc(Nc2c(C(N)=O)cnc3c(C)cc([S+](=O)([O-])c4cccc(C(=O)N(C)C)c4)cc23)c1`, the efficacy is reported as -45.1%. For `CCCc1nc2c(C)cc(-c3nc4ccccc4n3C)cc2n1Cc1ccc(-c2ccccc2C(=O)O)cc1` [Telmisartan], the efficacy was -20.9%. `Cn1c(-c2ccccc2C(F)(F)F)nnc1C12CCC(c3noc(C4CC(F)(F)C4)n3)(CC1)CC2` [MK-4101] showed an efficacy of -26.2%. In the case of `CN1C(=O)N[C@H](Cc2c[nH]c3c(Cl)cccc23)C1=O` [Necrostatin 2], the efficacy is reported as 15%. Work on `CN(C(Cc1ccc(OS(=O)(=O)c2cccc3cnccc23)cc1)C(=O)N1CCN(c2ccccc2)CC1)S(=O)(=O)c1cccc2cnccc12` (stereo unspecified) [KN-62] yielded an efficacy of -21.2%. `Clc1cc2c(NC3CCCC3)nnc(-c3ccncc3)c2cc1Cl` [A-196] was tested, and the efficacy was 14.4%. For `CCC[S+](=O)([O-])Nc1ccc(F)c(C(=O)c2c[nH]c3ncc(-c4ccc(Cl)cc4)cc23)c1F` [Vemurafenib], the efficacy was 9.66%. `Cc1csc(NC(=O)c2sc3nc4c(c(C(F)(F)F)c3c2N)CCC4)n1` [Irestatin 9389] gave an efficacy of -42%. Work on `CC(C)(C)C(=O)N1\N=C/C[C@H]1C2=CC=CC=C2` [GSK-963] yielded an efficacy of -9.61%. `CC(c1cc2ccccc2s1)N(O)C(N)=O` (stereo unspecified) [Zileuton] showed an efficacy of -26.8%. `NC(=O)c1cccc(-c2cccc(OC(=O)NC3CCCCC3)c2)c1` [KDS-4103] gave an efficacy of -18%. In the case of `CN(CC1=CC2=C(N\C(=N/C2=O)C)C=C1)C3=CC=C(S3)C(=O)N[C@@H](CCC(O)=O)C(O)=O` [Raltitrexed], the efficacy is reported as -59%. For `CCCCCCCCCCCC(CC1OC(=O)C1CCCCCC)OC(=O)C(CC(C)C)NC=O` (stereo unspecified) [Orlistat], the efficacy was -6.83%. `COc1ccc([C@@H]2CC(=O)c3c(O)cc(O[C@@H]4O[C@H](CO[C@@H]5O[C@@H](C)[C@H](O)[C@@H](O)[C@H]5O)[C@@H](O)[C@H](O)[C@H]4O)cc3O2)cc1O` [Aurantiamarin (Methyl Hesperidin)] gave an efficacy of -15%. In the case of `CN[C@@H](C)C(=O)N[C@H]1CN(C(=O)CC(C)C)CC[C@H]2CC[C@@H](C(=O)NC(c3ccccc3)c3ccccc3)N2C1=O` [AT-406], the efficacy is reported as -8.4%. `O=c1sn(-c2cccc3ccccc23)c(=O)n1Cc1ccccc1` [Tideglusib] gave an efficacy of -7.08%. Compound `C[C@H]1C[C@H]2[C@@H]3CC[C@](O)(C(=O)CO)[C@@]3(C)C[C@H](O)[C@@H]2[C@@]\4(C)/C=C\C(=O)\C=C14` [Methylprednisolone] has an efficacy of 20%. In the case of `CCOC(=O)[C@@H](N)CCC(=O)N[C@@H](CSCc1ccccc1)C(=O)N[C@@H](C(=O)OCC)c1ccccc1` [Ezatiostat], the efficacy is reported as -18.5%. `CCOC(=O)C1=CCCCC1[S+](=O)([O-])Nc1ccc(F)cc1Cl` (stereo unspecified) [TAK-242] was tested, and the efficacy was -34.7%. Compound `O=C(CBr)N1CC([N+](=O)[O-])([N+](=O)[O-])C1` [RRx-001] has an efficacy of -23.7%. Compound `Cc1ccc(-c2ncc(Cl)cc2-c2ccc([S+](C)(=O)[O-])cc2)cn1` [Etoricoxib] has an efficacy of -16.9%. `Cc1c(Cl)cccc1[S+](=O)([O-])Nc1nc(CCN2CCOCC2=O)cs1` [BVT-3498] showed an efficacy of -14.1%. For `NC(=O)c1noc([C@H](CCCC2CCCCC2)CC(=O)NO)n1`, the efficacy was -86.4%. With `CN[C@@H](C)C(=O)N[C@H](C(=O)N1CCC[C@H]1C(=O)Nc1snnc1-c1ccccc1)C1CCCCC1` [GDC-0152] the efficacy was -13.4%. Compound `O=c1cc(O)c(Cl)c[nH]1` [Gimeracil] has an efficacy of -6.4%. In the case of `CO[C@H]1C[C@@H]2CC[C@@H](C)[C@@](O)(O2)C(=O)C(=O)N2CCCC[C@H]2C(=O)O[C@H]([C@H](C)C[C@@H]2CC[C@@H](OC(=O)C(C)(CO)CO)[C@H](OC)C2)CC(=O)[C@H](C)/C=C(\C)[C@@H](O)[C@@H](OC)C(=O)[C@H](C)C[C@H](C)/C=C/C=C/C=C/1C` [Temsirolimus], the efficacy is reported as -13.9%. Compound `CC(C)(O)c1coc([S+](=O)([O-])NC(=O)Nc2c3c(cc4c2CCC4)CCC3)c1` has an efficacy of 7.83%. `CC(N[C@H]1C[C@@H]1c1ccccc1)c1ccc2c(c1)OCCO2` (stereo partly specified) [LSD1-C76] was tested, and the efficacy was -23.9%. In the case of `CC(=O)N1CCN(c2ccc(NC(=O)Cc3cnc(-c4ccnc(F)c4)c(C)c3)nc2)CC1` [GNF-6231], the efficacy is reported as -22.2%. For `C/C(=C\c1csc(C)n1)[C@@H]1C[C@@H]2O[C@@H]2CCC[C@H](C)[C@H](O)[C@@H](C)C(=O)C(C)(C)[C@@H](O)CC(=O)O1` [Epothilone A], the efficacy was -68.2%. With `CN[C@@H](C)C(=O)N[C@@H]1C(=O)N(Cc2c(C)ccc3ccccc23)c2ccc(C#N)cc2N(C(C)=O)[C@H]1C` [Compound 36] the efficacy was -26%. For `Cc1onc(-c2ccc(F)cc2)c1COc1ccc(C(=O)N2CC[S+](=O)([O-])CC2)cn1` [Basmisanil], the efficacy was -18.7%. For `O=C1c2c(O)cc(O)cc2O[C@H](c2ccc(O)c(O)c2)[C@H]1O` [(▒)-Taxifolin], the efficacy was 4.75%. Compound `Clc1cccc(-n2nnnc2NCc2ccccc2Oc2ccccn2)c1Cl` has an efficacy of -32%. `CCCCn1c(=O)n(Cc2ccccc2F)c(=O)c2nc(Cc3ccc(NC(C)=O)cc3)[nH]c21` [cPEPCK Inhibitor] showed an efficacy of -8.36%. `CCCCCCCCCCCCc1ccc([S+](=O)([O-])Nc2nncs2)cc1` [PHT-427] showed an efficacy of -13.9%. Work on `COc1cc(OCc2cccc(-c3ccccc3)c2C)cc(OC)c1CN1CCCC[C@H]1C(=O)O` [PD-1/PD-L1 Inhibitor 1] yielded an efficacy of -62%. `C=CC(=O)Nc1cc(N2CCN(CC)CC2)ccc1Nc1cc(N(C)C(=O)Nc2c(Cl)c(OC)cc(OC)c2Cl)ncn1` [H3B-6527] showed an efficacy of -19.6%. In the case of `O=NN(CCCl)C(=O)NCCCl` [Carmustine], the efficacy is reported as -15.1%. Work on `O=C(Nc1ccc(-c2ccnc(Nc3ccc(N4CCOCC4)cc3)n2)cc1)C1CCCN1` (stereo unspecified) [XL-019] yielded an efficacy of -19.1%. Work on `Cc1ccc([S+](=O)([O-])Nc2nc3ccccc3nc2Nc2ccc3nsnc3c2)cc1` [XL-147] yielded an efficacy of -12%. `COc1cc(F)c(C(C)C)cc1-c1ccc(C(F)(F)F)cc1CN1C(=O)O[C@H](c2cc(C(F)(F)F)cc(C(F)(F)F)c2)[C@@H]1C` [Anacetrapib] was tested, and the efficacy was -14.3%. In the case of `Nc1ncnc2c1ncn2[C@@H]1O[C@H](CO)C[C@H]1O` [Cordycepin], the efficacy is reported as -20.6%. Work on `C#Cc1cccc(Nc2ncnc3cc4c(cc23)OCCOCCOCCO4)c1` [Icotinib hydrochloride] yielded an efficacy of -36%. `[NH2][Pt]([NH2])([Cl])[Cl]` [Cisplatin] showed an efficacy of -25%. `CC(C)(Sc1cc(C(C)(C)C)c(O)c(C(C)(C)C)c1)Sc1cc(C(C)(C)C)c(O)c(C(C)(C)C)c1` [Probucol] was tested, and the efficacy was -25.9%. With `CC1=C(C=CC=C1)N2\C(=N/C3=C(C(=CC=C3)C)C2=O)C[N]4N=CC5=C4N=CN=C5N` [PIK-293] the efficacy was -6.78%. `N#Cc1ccc(C(c2ccc(C#N)cc2)n2cncn2)cc1` [Letrozole] showed an efficacy of -10.3%. `O=C(COCC(=O)N1CCN(C(c2ccccc2)c2ccccc2)CC1)Nc1ccc(Cl)cc1C(=O)O` [TM-5275] was tested, and the efficacy was 6.23%. `CC(C)(N[S+](=O)([O-])c1ccc2c(Cl)cnc(NC(=N)N)c2c1)C(=O)O` showed an efficacy of -7.17%. In the case of `C[C@]12CCC(=O)C(O)=C1CC[C@@H]1[C@@H]2CC[C@]2(C)C(=O)CC[C@@H]12` [Formestane], the efficacy is reported as 24.5%. In the case of `O=C(CCc1ccc(O)cc1)c1c(O)cc(O)cc1O[C@@H]1O[C@H](CO)[C@@H](O)[C@H](O)[C@H]1O` [Phlorizin], the efficacy is reported as -28.6%. Work on `CCC(=O)N[C@H]1CC[C@H](C(=O)N(C)c2ccc(-c3nc4ccccc4o3)cc2)C1` [FASN BI] yielded an efficacy of -31.4%. Compound `COc1ccc2cccc(CCNC(C)=O)c2c1` [Agomelatine] has an efficacy of -12.5%. `CC[C@H](/C=C/[C@@H](C)[C@H]1CC[C@H]2[C@@H]3CC=C4C[C@@H](O)CC[C@]4(C)[C@H]3CC[C@]12C)C(C)C` [Stigmasterol] was tested, and the efficacy was 11.5%. Compound `O=C(O)C(=O)Nc1cccc(-c2nnn[nH]2)c1` [Acitazanolast] has an efficacy of 17%. With `NC(=O)c1nc(F)cnc1O` [Favipiravir] the efficacy was -17.6%. For `COc1ccc(CCC(=O)Nc2nc3ccc(Cl)cc3s2)cc1OC`, the efficacy was -14.1%. In the case of `CCCCC(=O)O[C@@]1([C@@H](C)C[C@H]2[C@@H]3CCC/4=C/C(=O)/C=C\[C@]4(C)[C@@]3(F)[C@@H](O)C[C@]12C)C(=O)CO` [Betamethasone valerate], the efficacy is reported as -7.12%. `CC(C)(C)c1cc(C(=O)O)c(NC(=O)Nc2ccc3[nH]ncc3c2)s1` [S6K-18] showed an efficacy of -16.6%. Work on `CC(C)c1onc(-c2c(Cl)cccc2Cl)c1COc1ccc(/C=C/c2cccc(C(=O)O)c2)c(Cl)c1` [GW-4064X] yielded an efficacy of -29.7%. `CC(C)[C@](O)(c1ccc2cc(OC(F)F)c(OC(F)F)cc2c1)c1c[nH]nn1` [Seviteronel] showed an efficacy of -56.2%. `COc1ccc([S+](=O)([O-])NCc2ccc(C(=O)NCCc3ccc(Cl)cn3)cc2)cc1` showed an efficacy of -62.6%. For `CC(=O)Nc1ccc(OC[C@](C)(O)C(=O)Nc2ccc([N+](=O)[O-])c(C(F)(F)F)c2)cc1` [Andarine], the efficacy was -7.63%. For `CCN(CC)C(=O)Cc1csc(N[S+](=O)([O-])c2cccc(Cl)c2C)n1`, the efficacy was -27.3%. Compound `C[C@@H]1CN(CC(=O)N2CC(C)(C)c3ncc(Cc4ccc(F)cc4)cc32)[C@@H](CN2CCOC[C@H]2C)CN1` [AT-IAP] has an efficacy of -62.8%. `CN1CCN(CCCNc2ncc(Cl)c(-c3cc4c(C(=O)NC5CC5)cccc4s3)n2)CC1` was tested, and the efficacy was -28.8%.
